Each structure is given as a SMILES string.

This experiment addresses Ar‐BVMO (Acinetobacter radioresistens, UniProt D7PBN2). Nature of the experiment: HPLC product detection. Type of experiment: biochemical. The conditions noted are these: 500 uM substrate, 500 uM NADPH, 0.7 uM enzyme, 37 C, 20 min.

As to `CCc1cc(C(N)=S)ccn1` [ethionamide], the “HPLC product detection (ethionamide S-oxide)” value is reported as “confirmed the presence of ethionamide S‐oxide product”.

The values above are taken from PMC3815892 (Microbial biotechnology, 2012).
